Measured values reported in patent publication US7425631B2 (Amgen Inc., priority 2003, dated 2008).

Molecular target: T1, human B1 receptor (Homo sapiens, UniProt P46663)
T1 construct: expressed in transfected cells
T1 sequence (P46663 1-353): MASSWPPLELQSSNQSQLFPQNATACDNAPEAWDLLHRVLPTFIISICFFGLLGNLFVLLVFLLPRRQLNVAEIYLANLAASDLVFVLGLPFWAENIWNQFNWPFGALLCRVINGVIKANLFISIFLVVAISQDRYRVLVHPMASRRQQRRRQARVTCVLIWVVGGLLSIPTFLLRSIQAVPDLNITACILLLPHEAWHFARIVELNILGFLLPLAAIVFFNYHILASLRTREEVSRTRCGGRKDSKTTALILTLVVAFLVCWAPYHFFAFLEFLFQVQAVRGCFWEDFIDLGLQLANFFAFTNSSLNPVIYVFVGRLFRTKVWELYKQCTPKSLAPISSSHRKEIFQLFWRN
Assay: In vitro assay of human B1 receptor function using calcium flux (aequorin luminescence)
Format: cell-based
Settings: CHO D-/hB1/Aequorin cells, agonist 20 nM des-Arg10-Kallidin (EC80); read-out: binding IC50's to hB1 receptor function
Method: Activation of the Gq linked B1 receptor results in an increase in intracellular calcium. […] Aequorin is a 21-kDa photoprotein that forms a bioluminescent complex when linked to the chromophore cofactor coelenterazine.
Following coelenterazine incubation, an automated flash-luminometer platform was used to dispense the B1 antagonist compounds (dissolved in DMSO and diluted with buffer to the desired concentration (final DMSO concentration <1% DMSO)) to the cell plate, a CCD camera situated underneath the cell plate took 12 images of the cell plate at 5 second intervals to determine if there was any agonist activity with the compounds. The hB1 agonist, des-Arg10-Kallidin, was added to the cell plate and another 12 images were recorded to determine the IC50 of the antagonist(s).

IC50, < 0.01 µM:
CC(C)(C)NCc1ccc2c(c1)CCC[C@H]2NC(=O)C[C@@H](NS(=O)(=O)c1ccc(Cl)c(Cl)c1)c1ccccc1 [bm, (3R)-3-(((3,4-dichlorophenyl)sulfonyl)amino)-N-((1R)-6-(((1,1-dimethylethyl)amino)methyl)-1,2,3,4-tetrahydro-1-naphthalenyl)-3-phenylpropanamide]
O=C(CC(NS(=O)(=O)c1ccc(Cl)c(Cl)c1)c1ccc(F)cc1)NC1CCOc2cc(CN3CCCCC3)ccc21 (stereo not drawn) [by, 3-(3,4-Dichloro-benzenesulfonylamino)-3-(4-fluoro-phenyl)-N-(7-piperidin-1-ylmethyl-chroman-4-yl)-propionamide]
O=C(C[C@@H](NS(=O)(=O)c1ccc(Cl)c(Cl)c1)c1ccc(F)cc1)N[C@@H]1CCCc2cc(CN3CCCCC3)ccc21 [bz, 3-(3,4-Dichloro-benzenesulfonylamino)-3-(4-fluoro-phenyl)-N-(6-piperidin-1-ylmethyl-1,2,3,4-tetrahydro-naphthalen-1-yl)-propionamide]
COCCNCc1ccc2c(c1)OCC[C@H]2NC(=O)C[C@@H](NS(=O)(=O)c1ccc(Cl)c(Cl)c1)c1ccc(F)cc1 [ce, 3-(3,4-Dichloro-benzenesulfonylamino)-3-(4-fluoro-phenyl)-N-{7-[(2-methoxy-ethylamino)-methyl]-chroman-4-yl}-propionamide]
CC(C)(C)NCc1ccc2c(c1)CCC[C@H]2NC(=O)C[C@@H](NS(=O)(=O)c1ccc(Cl)c(Cl)c1)c1ccc(F)cc1 [cj, N-[6-(tert-Butylamino-methyl)-1,2,3,4-tetrahydro-naphthalen-1-yl]-3-(3,4-dichloro-benzenesulfonylamino)-3-(4-fluoro-phenyl)-propionamide]
CC(C)CNCc1ccc2c(c1)OCC[C@H]2NC(=O)C[C@@H](NS(=O)(=O)c1cccc(C(F)(F)F)c1)c1ccc(F)cc1 [cl, 3-(4-Fluoro-phenyl)-N-[7-(isobutylamino-methyl)-chroman-4-yl]-3-(3-trifluoromethyl-benzenesulfonylamino)-propionamide]
CC(C)(C)NCc1ccc2c(c1)OCC[C@H]2NC(=O)C[C@@H](NS(=O)(=O)c1cccc(C(F)(F)F)c1)c1ccc(F)cc1 [co, N-[7-(tert-Butylamino-methyl)-chroman-4-yl]-3-(4-fluoro-phenyl)-3-(3-trifluoromethyl-benzenesulfonylamino)-propionamide]
O=C(C[C@@H](NS(=O)(=O)c1cccc(C(F)(F)F)c1)c1ccc(F)cc1)N[C@@H]1CCOc2cc(CN3CCCC3)ccc21 [ct, 3-(4-Fluoro-phenyl)-N-(7-pyrrolidin-1-ylmethyl-chroman-4-yl)-3-(3-trifluoromethyl-benzenesulfonylamino)-propionamide]
CC(C)(C)NCc1ccc2c(c1)CCC[C@H]2NC(=O)C[C@@H](NS(=O)(=O)c1cccc(C(F)(F)F)c1)c1cccc([N+](=O)[O-])c1 [cx, N-[6-(tert-Butylamino-methyl)-1,2,3,4-tetrahydro-naphthalen-1-yl]-3-(3-nitro-phenyl)-3-(3-trifluoromethyl-benzenesulfonylamino)-propionamide]
CC(C)(C)NCc1ccc2c(c1)CCC[C@H]2NC(=O)C[C@@H](NS(=O)(=O)c1cccc(C(F)(F)F)c1)c1cccc(C#N)c1 [cy, N-[6-(tert-Butylamino-methyl)-1,2,3,4-tetrahydro-naphthalen-1-yl]-3-(3-cyano-phenyl)-3-(3-trifluoromethyl-benzenesulfonylamino)-propionamide]
CC(C)(C)c1ccc(S(=O)(=O)N[C@H](CC(=O)N[C@@H]2CCCc3cc(CNC4CCC4)ccc32)c2ccc(F)cc2)cc1 [de, 3-(4-tert-Butyl-benzenesulfonylamino)-N-(6-cyclobutylaminomethyl-1,2,3,4-tetrahydro-naphthalen-1-yl)-3-(4-fluoro-phenyl)-propionamide]
CC(C)(C)c1ccc(S(=O)(=O)N[C@H](CC(=O)N[C@@H]2CCCc3cc(CN4CCCCC4)ccc32)c2ccc(F)cc2)cc1 [dh, 3-(4-tert-Butyl-benzenesulfonylamino)-3-(4-fluoro-phenyl)-N-(6-piperidin-1-ylmethyl-1,2,3,4-tetrahydro-naphthalen-1-yl)-propionamide]
CC(C)CNCc1ccc2c(c1)CCC[C@H]2NC(=O)C[C@@H](NS(=O)(=O)c1ccc(C(C)(C)C)cc1)c1ccc(F)cc1 [dj, 3-(4-tert-Butyl-benzenesulfonylamino)-3-(4-fluoro-phenyl)-N-[6-(isobutylamino-methyl)-1,2,3,4-tetrahydro-naphthalen-1-yl]-propionamide]
CC(C)(C)NCc1ccc2c(c1)CCC[C@H]2NC(=O)C[C@@H](NS(=O)(=O)c1ccc(C(C)(C)C)cc1)c1ccc(F)cc1 [do, N-[6-(tert-Butylamino-methyl)-1,2,3,4-tetrahydro-naphthalen-1-yl]-3-(4-tert-butyl-benzenesulfonylamino)-3-(4-fluoro-phenyl)-propionamide]
O=C(C[C@@H](NS(=O)(=O)c1cccc(C(F)(F)F)c1)c1cccc(F)c1)N[C@@H]1CCCc2cc(CN3CCCCC3)ccc21 [dq, 3-(3-Fluoro-phenyl)-N-(6-piperidin-1-ylmethyl-1,2,3,4-tetrahydro-naphthalen-1-yl)-3-(3-trifluoromethyl-benzenesulfonylamino)-propionamide]
O=C(C[C@@H](NS(=O)(=O)c1ccc(Cl)c(Cl)c1)c1cccc(F)c1)N[C@@H]1CCCc2cc(CNC3CCCC3)ccc21 [dx, N-(6-Cyclopentylaminomethyl-1,2,3,4-tetrahydro-naphthalen-1-yl)-3-(3,4-dichloro-benzenesulfonylamino)-3-(3-fluoro-phenyl)-propionamide]
O=C(C[C@@H](NS(=O)(=O)c1cccc(C(F)(F)F)c1)c1ccc(F)cc1)N[C@@H]1CCCc2cc(CN3CCC(F)CC3)ccc21 [eb, 3-(4-Fluoro-phenyl)-N-[6-(4-fluoro-piperidin-1-ylmethyl)-1,2,3,4-tetrahydro-naphthalen-1-yl]-3-(3-trifluoromethyl-benzenesulfonylamino)-propionamide]
O=C(C[C@@H](NS(=O)(=O)c1ccc(Cl)c(Cl)c1)c1cccc(Cl)c1)N[C@@H]1CCCc2cc(CN3CCCCC3)ccc21 [ed, 3-(3-Chloro-phenyl)-3-(3,4-dichloro-benzenesulfonylamino)-N-(6-piperidin-1-ylmethyl-1,2,3,4-tetrahydro-naphthalen-1-yl)-propionamide]
CC(C)(C)NCc1ccc2c(c1)OCC[C@H]2NC(=O)C[C@@H](NS(=O)(=O)c1cc(C(F)(F)F)ccc1Cl)c1ccc(F)cc1 [ej, N-[7-(tert-Butylamino-methyl)-chroman-4-yl]-3-(2-chloro-5-trifluoromethyl-benzenesulfonylamino)-3-(4-fluoro-phenyl)-propionamide]
CC(C)(C)NCc1ccc2c(c1)CCC[C@H]2NC(=O)C[C@H](NS(=O)(=O)c1cccc(C(F)(F)F)c1)c1ccc([N+](=O)[O-])cc1 [em, N-[6-(tert-Butylamino-methyl)-1,2,3,4-tetrahydro-naphthalen-1-yl]-3-(4-nitro-phenyl)-3-(3-trifluoromethyl-benzenesulfonylamino)-propionamide]
O=C(CC(NS(=O)(=O)c1cccc(C(F)(F)F)c1)c1ccc(Cl)cc1)N[C@@H]1CCCc2cc(CN3CCCCC3)ccc21 (stereo partly drawn) [ex, 3-(4-Chloro-phenyl)-N-(6-piperidin-1-ylmethyl-1,2,3,4-tetrahydro-naphthalen-1-yl)-3-(3-trifluoromethyl-benzenesulfonylamino)-propionamide]
O=C(CC(NS(=O)(=O)c1cccc(C(F)(F)F)c1)c1cc(Cl)cc(Cl)c1)N[C@@H]1CCCc2cc(CN3CCCCC3)ccc21 (stereo partly drawn) [fb, 3-(3,5-Dichloro-phenyl)-N-(6-piperidin-1-ylmethyl-1,2,3,4-tetrahydro-naphthalen-1-yl)-3-(3-trifluoromethyl-benzenesulfonylamino)-propionamide]
O=C(CC(NS(=O)(=O)c1cccc(C(F)(F)F)c1)c1ccccc1F)N[C@@H]1CCCc2cc(CN3CCCCC3)ccc21 (stereo partly drawn) [fg, 3-(2-Fluoro-phenyl)-N-(6-piperidin-1-ylmethyl-1,2,3,4-tetrahydro-naphthalen-1-yl)-3-(3-trifluoromethyl-benzenesulfonylamino)-propionamide]
O=C(CC(NS(=O)(=O)c1cccc(C(F)(F)F)c1)c1ccc(F)cc1)N[C@@H]1CCCc2cc(CN3CCCCC3)ccc21 (stereo partly drawn) [fh, 3-(4-Fluoro-phenyl)-N-(6-piperidin-1-ylmethyl-1,2,3,4-tetrahydro-naphthalen-1-yl)-3-(3-trifluoromethyl-benzenesulfonylamino)-propionamide]
